Assay results reported in patent publication US7053123B2, “Substituted (e)-styryl benzylsulfones for treating proliferative disorders” (Temple University-of the Commonwealth System of Higher …, priority 2000, dated 2006).
pIC50: −log10 of the molar value. One block for each molecule: values may come before it.

How the values were obtained:
Type in all cases: cell-based
[1] = test system: colorectal carcinoma cell line DLD-1; assay: Tumor cell viability assay (Trypan blue exclusion), DLD-1; conditions: DLD-1 cell line, tested at 5, 10 and 20 μM, 96 hours, read-out: G150 (the concentration resulting in 50% growth inhibition)
Description: (§1) The effect of the Example 13 compound on the growth of normal fibroblasts and on tumor cells of prostate, colon, lung, brain, pancreas and breast origin was examined utilizing the following cell lines: prostate carcinoma cell line DU-145; colorectal carcinoma cell line DLD-1; non-small cell lung carcinoma cell line H157; pancreatic carcinoma cell line MIA-Pa-Ca-2; glioblastoma cell line U87; and breast adenocarcinoma cell line BT-20. BT-20 is an estrogen-unresponsive cell line. NIH/3T3 and HFL are normal murine and human fibroblasts, respectively. BT-20, DLD-1 and H157 were grown in Dulbecco's modified Eagle's medium (DMEM) containing 10% fetal bovine serum supplemented with penicillin and streptomycin. DU145 was cultured in RPMI with 10% fetal bovine serum containing penicillin and streptomycin. […]
(§2) Cells were treated with the Example 13 compound at concentrations of 100, 250, 500 and 1000 nM. Cell viability was determined after 96 hours by the Trypan blue exclusion method. […] The drug G150 (the concentration resulting in 50% growth inhibition) was calculated as 200 nM for the MIA-Pa-Ca-2 cell line.
(§3) The procedure of Example 40 was followed for the compound of Example 37, on cell lines DLD-1, H157 and BT20, at 5, 10 and 20 μM concentrations. The drug G150 was calculated for each cell line as follows: DLD, 8 μM; H157, 15 μM; and BT20, 15 μM.

[2] = test system: non-small cell lung carcinoma cell line H157; assay: Tumor cell viability assay (Trypan blue exclusion), H157; conditions: tested at 5, 10 and 20 μM, 96 hours, read-out: G150 (the concentration resulting in 50% growth inhibition)
Description: as §1, §2, §3

[3] = test system: breast adenocarcinoma cell line BT-20; assay: Tumor cell viability assay (Trypan blue exclusion), BT-20; conditions: BT20 cell line, tested at 5, 10 and 20 μM, 96 hours, read-out: G150 (the concentration resulting in 50% growth inhibition)
Description: as §1, §2, §3

[4] = test system: HFL normal human fibroblasts; assay: Normal fibroblast viability assay (Trypan blue exclusion), HFL; conditions: normal cells HFL; treated at 100-1000 nM; 96 hours
Description: (§4) The effect of the Example 13 compound on the growth of normal fibroblasts and on tumor cells of prostate, colon, lung, brain, pancreas and breast origin was examined utilizing the following cell lines: prostate carcinoma cell line DU-145; colorectal carcinoma cell line DLD-1; non-small cell lung carcinoma cell line H157; pancreatic carcinoma cell line MIA-Pa-Ca-2; glioblastoma cell line U87; and breast adenocarcinoma cell line BT-20. BT-20 is an estrogen-unresponsive cell line. NIH/3T3 and HFL are normal murine and human fibroblasts, respectively. BT-20, DLD-1 and H157 were grown in Dulbecco's modified Eagle's medium (DMEM) containing 10% fetal bovine serum supplemented with penicillin and streptomycin. DU145 was cultured in RPMI with 10% fetal bovine serum containing penicillin and streptomycin. NIH3T3 and HFL cells were grown in DMEM containing 10% calf serum supplemented with penicillin and streptomycin. Cells were plated at density levels of 1.0×10^5 cells per well in six-well plates. Cell cultures were maintained at 37° C. in a humidified atmosphere of 5% CO2.
as §2

[5] = test system: NIH/3T3 normal murine fibroblasts; assay: Normal fibroblast viability assay (Trypan blue exclusion), NIH 3T3; conditions: normal cells NIH 3T3; treated at 100-1000 nM; 96 hours
Description: as §4, §2

[6] = test system: pancreatic carcinoma cell line MIA-Pa-Ca-2; assay: Tumor cell viability assay (Trypan blue exclusion), MIA-Pa-Ca-2; conditions: MIA-Pa-Ca-2 cell line, 96 hours, vs DMSO-treated cells, read-out: G150 (the concentration resulting in 50% growth inhibition)
Description: as §4, §2

Molecule: O=[N+]([O-])c1ccccc1/C=C/S(=O)(=O)Cc1ccc(Cl)cc1Cl [Example 37, (E)-2-Nitrostyryl-2,4-dichlorobenzylsulfone]
pIC50 [1]: 5.10
pIC50 [2]: 4.82
pIC50 [3]: 4.82

pIC50 [6]: 6.70
Molecule: (E)-2,6-Dimethoxystyryl-4-methoxybenzylsulfone [Example 13]
cell death [4]: no appreciable cell death
growth inhibition [4]: 5%
cell death [5]: no appreciable cell death
growth inhibition [5]: 5%
